Where a name gives a salt, the structure may show the parent alone.
Tests used:
Type in all cases: physicochemical
[1] = pH measurement of PVA-borate hydrogels (spear-tip electrode); settings: 10% w/w PVA and 2.5% w/w borax hydrogel, n=4
Method: PVA-borate hydrogels (10% w/w PVA and 2.5% w/w borax) were prepared by combining equal volumes of separate stock solutions (20% w/w PVA and 5% w/w borax) prepared in de-ionised water. A homogenous gel was formed upon heating the mixture to 80° C. for approximately two hours, with periodic stirring. Gels were stored for 48 hours at room temperature to allow complete gelation prior to evaluation. Excipients, such as lidocaine HCL and D-mannitol, were added to the sodium tetraborate solution prior to addition to the PVA solution. The pH of gel formulations were recorded using a Sensorex® spear-tip electrode ([…], Sensys Ltd, Stevenage), which is designed to penetrate and measure the pH of semi-solid systems. Measurements of pH in borax solutions (5% w/v), following successive additions of D-mannitol (5.0×10^-3 mole), were recorded using the same electrode apparatus. Additionally, the effect of the polyols on the concentration of free borate ions within the hydrogel was estimated using changes in the pH of the gel after addition of a defined polyol. Standard hydrogels of 10% w/w PVA and 2.5% borax were produced containing each polyol at a concentration of 0.1 Molar. The pH of each gel was measured upon equilibration, with each measurement performed for four samples (n=4). Similarly, the changes in gel hardness arising from variations in free borate induced by polyol addition were determined using texture profile analysis, as described above. As before, four replicate measurements were made in each case at ambient temperature (n=4).

[2] = Texture profile analysis (hardness) of PVA-borate hydrogels; settings: for Hardness (N): 10% w/w PVA and 2.5% w/w borax hydrogel with 0.1 M polyol, n=4; for effect on hardness compared to the hydrogel containing no polyol: hydrogel loaded with 0.1 Molar polyol
Method: Evaluation of the mechanical properties of PVA-borate hydrogels was performed using a TA-XT2 Texture Analyzer (Stable Micro Systems, […], UK) in texture profile analysis (TPA) mode. Formulations were placed in poly(propylene) containers (44 mm diameter×55 mm depth) (Sarstedt©, Wexford, Republic of Ireland) with any air bubbles in the gels removed upon standing at ambient temperature (>6.0 h) prior to investigation. The tubular probe (10.0 mm in diameter and 150.0 mm in length) was compressed twice into each sample to a depth of 15.0 mm at a rate of 10.0 mm s^-1, with a 15.0 s delay between compressions. Four replicate measurements were made in each case at ambient temperature. Hardness and compressibility, which have previously been used to define the mechanical properties of hydrogels were derived from the force-time plots produced by the TPA analysis^30. Those skilled in the art of TPA, will be familiar with production of said force-time plots and derivation of hardness and compressibility data from aforementioned data. Hardness, the force required to achieve a given deformation, was determined by the force maximum of the first positive curve of the force-time plot^30. Compressibility, the work required to deform the product during the first compression of the probe was determined by the area under the first positive curve of the force-time plot^30. Additionally, the effect of the polyols on the concentration of free borate ions within the hydrogel was estimated using changes in the pH of the gel after addition of a defined polyol. Standard hydrogels of 10% w/w PVA and 2.5% borax were produced containing each polyol at a concentration of 0.1 Molar. The pH of each gel was measured upon equilibration, with each measurement performed for four samples (n=4). Similarly, the changes in gel hardness arising from variations in free borate induced by polyol addition were determined using texture profile analysis, as described above. As before, four replicate measurements were made in each case at ambient temperature (n=4).

[3] = Comparison of polyol affinity for borate ions by direct titrimetry; settings: polyol added to 100.0 ml of 5% w/v Borax solution; calculated from pH with Equation 3
Method: The following polyols were used in this investigation; maltitol, dulcitol, D-mannitol, D-sorbitol, xylitol, meso-erythritol, 1,2-propanediol, glycerol. Additionally, the affect of propan-2-ol was also investigated. The affinity of each polyol for borate was estimated using direct titrimetry and by analysis of gel characteristics. In the former method, incremental additions (1.0 ml) of a 0.5 M solution of polyol was added to 100.0 ml of 5% w/v Borax solution and the pH recorded. […] 3; 10^(pH-pKa)[H3BO3]0═[B(OH)4^−]f (3) where, [H3BO3]0 is the concentration of boric acid, [B(OH)4^−]f is the concentration of free borate ions and pKa is the pKa of boric acid (derived from the initial pH of the 5% w/v borax solution). […] These assumptions are consistent with work of other researchers^27,28.

[4] = pHp of lidocaine hydrochloride within PVA-Borate hydrogels, derived experimentally
Method: […]. The determination of the pHp in the aqueous environment is determined using the equation (1), whilst the determination of the pHp within the gel environment is derived experimentally. […].

Row | pH of hydrogel with 0.1 M polyol [1] | Hardness (N) [2] | % reduction in free borate/0.0005 moles [3] | Compound | pHp (Gel) ([4]; 1% w/v lidocaine HCl in PVA-Borate hydrogel) | pHp (Gel) ([4]; 2% w/v lidocaine HCl in PVA-Borate hydrogel) | pHp (Gel) ([4]; 3% w/v lidocaine HCl in PVA-Borate hydrogel) | pHp (Gel) ([4]; 4% w/v lidocaine HCl in PVA-Borate hydrogel, hydrochloride) | pHp (Gel) ([4]; 4% w/v lidocaine HCl in PVA-Borate hydrogel, listed as lidocaine hydrochloride monohydrate, hydrochloride) | effect on hardness compared to the hydrogel containing no polyol [2]
1 | 7.95 ± 0.038 | 5.18 ± 0.31 N | 4.97 ± 1.21% | OC[C@@H](O)[C@H](O)[C@@H](O)CO [Xylitol] |  |  |  |  |  | 
2 | 8.17 +/− 0.022 |  | 3.36 ± 1.34% | OCC(O)CO [Glycerol] |  |  |  |  |  | 
3 | 7.74 ± 0.023 | 4.07 ± 0.25 N | 7.47 ± 1.10% | OC[C@@H](O)[C@@H](O)[C@H](O)[C@H](O)CO [D-mannitol] |  |  |  |  |  | 
4 | 7.63 ± 0.019 | 2.79 ± 0.14 N | 7.25 ± 1.59% | Malititol |  |  |  |  |  | 

Second part, the compound before the results:

Row | Compound | pH of hydrogel with 0.1 M polyol [1] | Hardness (N) [2] | % reduction in free borate/0.0005 moles [3] | pHp (Gel) ([4]; 1% w/v lidocaine HCl in PVA-Borate hydrogel) | pHp (Gel) ([4]; 2% w/v lidocaine HCl in PVA-Borate hydrogel) | pHp (Gel) ([4]; 3% w/v lidocaine HCl in PVA-Borate hydrogel) | pHp (Gel) ([4]; 4% w/v lidocaine HCl in PVA-Borate hydrogel, hydrochloride) | pHp (Gel) ([4]; 4% w/v lidocaine HCl in PVA-Borate hydrogel, listed as lidocaine hydrochloride monohydrate, hydrochloride) | effect on hardness compared to the hydrogel containing no polyol [2]
5 | OC[C@@H](O)[C@@H](O)[C@H](O)[C@@H](O)CO [D-sorbitol] | 7.79 ± 0.02 | 4.37 ± 0.31 N | 6.87 ± 1.25% |  |  |  |  |  | 
6 | CCN(CC)CC(=O)Nc1c(C)cccc1C [Lidocaine HCl, lidocaine hydrochloride] |  |  |  | ≧8.15 | ≧7.75 | ≧7.45 | ≧7.26 | > 7.26 | 
7 | CC(C)O [Propan-2-ol] | 8.393 +/− 0.012 |  | 0.51 ± 1.09% |  |  |  |  |  | no affect on the hardness of the hydrogel
8 | CC(O)CO (centres unmarked) [1,2-propandiol] | 8.39 ± 0.02 | 14.10 ± 0.5 N | 2.08 ± 0.78% |  |  |  |  |  | no affect on the hardness of the hydrogel
9 | OC[C@@H](O)[C@H](O)[C@H](O)[C@@H](O)CO [Dulitol] | 7.67 ± 0.015 | 3.87 ± 0.38 N | 7.46 ± 1.41% |  |  |  |  |  | 
10 | OC[C@@H](O)[C@@H](O)CO [Meso-erythritol] | 8.10 ± 0.01 | 9.01 ± 0.45 N | 4.97 ± 1.17% |  |  |  |  |  | 

From patent US9272038B2, “Wound care formulation” (Innovation Ulster Limited, priority 2007, dated 2016)
